According to patent US10610582B2, “Compound and method for vaccination and immunisation” (PCI Biotech AS, priority 2013, dated 2020):
Like-named read-outs stand apart in the source and are kept apart here.

How the values were obtained:
[1] = tested on: IFN-γ; assay type: in vivo, C57BL/6 mice; settings: day 14 spleen, 10 μg OVA + labelled TLR ligand + PCI, compared with other groups
[2] = tested on: IL-2; assay type: in vivo, C57BL/6 mice; settings: day 14 spleen, 10 μg OVA + labelled TLR ligand + PCI, compared with other groups
[3] = tested on: antigen specific CD8 T-cells; assay type: in vivo, C57BL/6 mice; settings: 3rd immunisation (day 51) with poly(IC)+PCI after two immunisations with poly(IC) only, group 2
Method: The generation of immunological memory was tested by a 3rd immunisation at day 51 with a poly(IC)+PCI treatment. […]

[4] = tested on: antigen specific CD8 T-cells (HPV pentamer); test: PCI with HPV long peptide antigen and poly(IC) in normal mice, HPV pentamer flow cytometry (Example 15)
[5] = tested on: antigen specific CD8 T-cells; assay type: in vivo, C57BL/6 mice; settings: 200 μg OVA + 10 μg poly(IC) injected 2 h before illumination, TPCS2a 150 μg 18 h before illumination
Method: In all groups TPCS2a was injected 18 h before illumination, while OVA antigen and poly(IC) was either injected 18 h before illumination in a mixture with TPCS2a, or 2 h before illumination as a separate injection. Illumination was for 6 min with the LumiSource illumination device. […]

[6] = tested on: antigen-specific CD8+ T-cells (TRP-2 pentamer); test: PCI with melanoma antigen peptides (TRP-2 and gp100) and poly(IC) in normal mice, TRP-2 pentamer flow cytometry (Example 6); assay type: in vivo, C57BL/6 mice; settings: after 2nd immunisation
[7] = tested on: antigen specific CD8 T-cells; assay type: in vivo, C57BL/6 mice; settings: particularly after 2nd immunisation; 200 μg OVA + 50 μg poly(IC) + PCI (150 μg TPCS2a + light), group 5
From the text: The following experimental groups were included:

[8] = tested on: antigen specific CD8 T-cells (HPV pentamer); test: PCI with HPV short peptide antigen and poly(IC) in normal mice, HPV pentamer flow cytometry (Example 16)
[9] = tested on: OVA-specific CD8 T-cells; test: Vaccination with OVA, Poly(IC) or CpG ODN2395 in mice given OT-1 cells: OVA-specific CD8 T-cells in blood by flow cytometry (Example 3); assay type: in vivo, C57BL/6 mice; settings: day 7
Method: One day prior to the immunisation, spleens and lymph nodes were isolated from female OT-1 mice, and erythrocytes were removed by lysis (RBC Lysing Buffer Hybri-Max from Sigma-Aldrich) from the homogenised cell suspensions. […] One day or 8 hours later, mice were bled by tail bleeding, and the blood was collected in heparin-containing tubes for analysis of the baseline frequency of OVA-specific CD8 T cells.
The illumination time was 6 minutes.
At the end of the experiment (day 14), the mice were euthanized and the splenocytes analysed ex vivo.

[10] = tested on: antigen specific CD8 T-cells
[11] = tested on: antigen specific CD8 T-cells (HPV pentamer); test: PCI with HPV peptide antigen and poly(IC) in normal mice, HPV pentamer flow cytometry (Example 12); settings: after three immunisations; 50 μg HPV peptide + 10 μg poly(IC) twice, 3rd with poly(IC) + PCI (100 μg TPCS2a + light), group 6
[12] = TRP-2 + gp100 peptides (50 μg each) with the labelled agent alone (10 μg poly(IC), or PCI = 100 μg TPCS2a + light), vs untreated
[13] = HPV short peptide with only the labelled agent (only p(IC) or only PCI) for both immunisations
[14] = 10 μg OVA with the labelled agent alone (50 μg ODN2395 CpG or 50 μg Poly(IC) without PCI; PCI = 150 μg TPCS2a + light without adjuvant)

Compound | IFN-γ production in total spleen cells (ELISA) [1] | IL-2 production in total spleen cells (ELISA) [2] | % antigen-specific, CD44+ cells of the total CD8+ cells [3] | % antigen-specific, CD44+ cells of the total CD8+ cells (HPV pentamer) ([4]; HPV long peptide + 10 μg p(IC) twice, without PCI, group 2) | % antigen-specific, CD44+ cells of the total CD8+ cells (HPV pentamer) ([4]; HPV long peptide, one immunisation with PCI+p(IC), one with only PCI, groups 4 and 5) | % antigen-specific, CD44+ cells of the total CD8+ cells (HPV pentamer) ([4]; after two immunisations, both with 50 μg HPV long peptide + 10 μg p(IC) + PCI (100 μg TPCS2a + light), group 3) | % antigen-specific, CD44+ cells of the total CD8+ cells [5] | % antigen-specific, CD44+ cells of the total CD8+ cells (TRP-2 pentamer) [6, 12] | % antigen-specific, CD44+ cells of the total CD8+ cells (TRP-2 pentamer) ([6]; TRP-2 + gp100 peptides + 10 μg poly(IC) + PCI (100 μg TPCS2a + light), group 4) | % antigen-specific, CD44+ cells of the total CD8+ cells [7] | % antigen-specific, CD44+ cells of the total CD8+ cells (HPV pentamer) [8, 13] | % antigen-specific, CD44+ cells of the total CD8+ cells (HPV pentamer) ([8]; HPV short peptide, 1st immunisation p(IC)+PCI, 2nd immunisation PCI only, group 6) | % antigen-specific, CD44+ cells of the total CD8+ cells (HPV pentamer) ([8]; after two immunisations, both with 50 μg HPV short peptide + 10 μg p(IC) + PCI (100 μg TPCS2a + light), group 5) | % antigen-specific, CD44+ cells of the total CD8+ cells in blood ([9]; 10 μg OVA + 50 μg labelled adjuvant combined with PCI (150 μg TPCS2a + light)) | % antigen-specific, CD44+ cells of the total CD8+ cells in blood [9, 14] | % antigen-specific, CD44+ cells of the total CD8+ cells ([10]; 10 μg OVA + poly(IC) (50 μg 1st, 10 μg 2nd) + red light PCI, group 6) | % antigen-specific, CD44+ cells of the total CD8+ cells ([10]; 100 μg OVA + poly(IC) (50 μg 1st, 10 μg 2nd) + red light PCI, group 7, vs antigen alone) | % antigen-specific, CD44+ cells of the total CD8+ cells (HPV pentamer) [11] | % antigen-specific, CD44+ cells of the total CD8+ cells ([10]; 10 μg OVA alone or with red light PCI (150 μg TPCS2a, 652 nm) only, after 1st and 2nd immunisation)
CCOCc1nc2c(N)nc3ccccc3c2n1CC(C)(C)O [R848, 1-[4-amino-2-(ethoxymethyl)imidazo[4,5-c]quinolin-1-yl]-2-methylpropan-2-ol] | highest | highest |  |  |  |  |  |  |  |  |  |  |  |  |  |  |  |  | 
Polyinosine-polycytidylic acid [Poly(IC)] |  |  | did not seem to boost immunisation to any significant degree | no effect | weaker, but still significant immune response | strong HPV-specific immune response | immune response is enhance | no significant increase in antigen-specific cells | clear synergistic effect leading to a significant increase in the number of antigen-specific CD8+ T-cells | substantially better immunisation than only poly(IC) (group 4) or only PCI (group 3) | no immune response | significant immune response | significant immune response | clear synergistic effect | no significant | required to achieve an immune response | substantially better | HPV-specific immune response was induced | 
tetraphenyl chlorin disulfonate [PCI] |  |  |  |  |  |  |  | no significant increase in antigen-specific cells |  |  | no immune response |  |  |  | substantially more potent than either of these adjuvants |  |  |  | no immunisation effect
